Experiment [1] relates to mutant HIV-1 with I84V/L90M mutations. The experiment can be described thus: microbe, parasite or virus in culture. Format: cell-based.
Experiment [2] concerns wild-type HIV-1 strain IIIB. The experiment in a line: microbe, parasite or virus in culture. The class given is cell-based.
The target of experiment [3] is T1, recombinant HIV-1 protease (Human immunodeficiency virus type 1 group M subtype B, UniProt P04585).
T1 construct: Enzyme: recombinant HIV-1 protease expressed in E. Coli; purchased Bachem California, Inc. H-9040; host or cells: E. coli
The experiment in a line: biochemical.

The mark [4] stands for this setting: Human immunodeficiency virus 1, IIIB.
Where [5] appears, read: fold difference in EC50 mutant vs wild type, class symbols.
The mark [6] stands for this setting: Human immunodeficiency virus 1, IIIB, class symbols.
Setting [7] is: read-out: HIV-1 protease inhibition Ki.
Setting [8] is: read-out: Anti-HIV-1 Cell Culture Activity EC50.

Where “and” joins values, the source holds several entries; their conditions need not be identical. Identical values can stand only once. Like-named read-outs stand apart in the source and are kept apart here. Bounds are passed on as bounds.

Regarding `Cc1cccc(C)c1OCC(=O)NC(Cc1ccc(OCP(=O)(OCc2ccccc2)OCc2ccccc2)cc1)C(O)CN(CC(C)C)S(=O)(=O)c1ccc(N)cc1` (stereo not shown), in experiment [1] (fold change), the I84V/L90M fold change result is on record as “− (≦3)”. Besides, the EC50 in experiment [2] (setting [4]) lay within 50 to 500 nM. For the compound `CCOC(=O)C(CC)OP(=O)(COc1ccc(CC(NC(=O)OC2COC3OCCC23)C(O)CN(CC(C)C)S(=O)(=O)c2ccc(OC)cc2)cc1)Oc1ccccc1` (stereo not shown) [Compound 5a], the I84V/L90M fold change result in experiment [1] (setting [5]) was “− (≦3)”. For the same compound, in experiment [3] (Ki (pM), class symbols), the Ki was 10 to 100 pM. The same compound displayed an EC50 in experiment [2] (setting [6]) of under 50 nM.

In the case of `COc1ccc(S(=O)(=O)N(CC(C)C)CC(O)C(Cc2ccc(CO)cc2)NC(=O)OC2COC3OCCC23)cc1` (stereo not shown), the I84V/L90M fold change result in experiment [1] (fold change) was “− (≦3)”. Further, the EC50 in experiment [2] (setting [4]) was under 50 nM. For `CC(C)CN(CC(O)C(Cc1ccccc1)NC(=O)OC1COC2OCCC12)S(=O)(=O)c1cccc(OCP(=O)(OCc2ccccc2)OCc2ccccc2)c1` (stereo not shown), the I84V/L90M fold change entry in experiment [1] (fold change) is on record as “++ (>10 to ≦30)”. The same compound showed an EC50 in experiment [2] (setting [4]) of under 50 nM. On to `CCOC(=O)C(C)NP(=O)(Cc1ccc(NCC(NC(=O)OC2COC3OCCC23)C(O)CN(CC(C)C)S(=O)(=O)c2ccc(OC)cc2)cc1)NC(C)C(=O)OCC` (stereo not shown), for which, in experiment [1] (setting [5]), the I84V/L90M fold change entry was “− (≦3)”. In experiment [2] (setting [4]), this compound returned an EC50 of 50 to 500 nM.

Take `CCOP(=O)(OCC)c1ccc(CNCC(NC(=O)OC2COC3OCCC23)C(O)CN(CC(C)C)S(=O)(=O)c2ccc(OC)cc2)cc1` (stereo not shown): in experiment [1] (setting [5]), the I84V/L90M fold change entry is reported as “++ (>10 to ≦30)”. The EC50 in experiment [2] (setting [4]) was under 50 nM. With `COc1ccc(S(=O)(=O)N(CC(C)C)C[C@@H](O)[C@H](Cc2ccc(OCP(=O)(OCc3ccccc3)OCc3ccccc3)cc2)NC(=O)OC2CCOC2)cc1` (stereo partly shown) [OMe, OBn], the I84V/L90M fold change entry in experiment [1] (fold change) is “++ (>10 to ≦30)”. Moreover, the EC50 in experiment [2] (read-out: EC50) was under 50 nM.

Regarding `CCOC(=O)C(CC(C)C)NP(=O)(COc1ccc(CC(NC(=O)OC2COC3OCCC23)C(O)CN(CC(C)C)S(=O)(=O)c2ccc(OC)cc2)cc1)NC(CC(C)C)C(=O)OCC` (stereo not shown) [Example 16g], in experiment [3] (setting [7]), the Ki is 29 ± 9 pM. Further, the EC50 in experiment [2] (setting [8]) amounted to 6.8 ± 0.4 nM.

`CC(C)CN(C[C@@H](O)[C@H](Cc1ccc(OCP(=O)(Oc2ccccc2)Oc2ccccc2)cc1)NC(=O)OC1CCOC1)S(=O)(=O)c1ccc(N)cc1` (stereo partly shown) [NH2, phenol]: in experiment [1] (fold change), the I84V/L90M fold change result is recorded as “− (≦3)”. Moreover, in experiment [2] (read-out: EC50), the EC50 is 50 to 500 nM. `COc1ccc(S(=O)(=O)N(CCN(C)C)CC(O)C(Cc2ccc(OCc3ccccc3)cc2)NC(=O)OC2COC3OCCC23)cc1` (stereo not shown): the I84V/L90M fold change entry in experiment [1] (fold change) is reported as “− (≦3)”. In addition, in experiment [2] (setting [4]), the EC50 was under 50 nM. In the case of `CCOP(=O)(COc1cccc(S(=O)(=O)N(CC(C)C)CC(O)C(Cc2ccccc2)NC(=O)OC2COC3OCCC23)c1)OCC` (stereo not shown), the I84V/L90M fold change result in experiment [1] (fold change) is “++ (>10 to ≦30)”. In experiment [2] (setting [4]), the EC50 is under 50 nM. With `CCOP(=O)(COc1ccc(CC(NC(=O)OC2CCOC2)C(O)CN(CC(C)C)S(=O)(=O)c2ccc(OC)cc2)cc1)OCC` (stereo not shown) [OMe, OEt], the Ki in experiment [3] (read-out: Ki) was < 10 pM and 10 to 100 pM. Moreover, in experiment [2] (read-out: EC50), the EC50 is under 50 nM. For the compound `CC(C)CN(CC(O)C(Cc1ccc(OCP(=O)(NC(C)C(=O)OC(C)C)Oc2ccccc2)cc1)NC(=O)OC1CCOC1)S(=O)(=O)c1ccc(N)cc1` (stereo not shown) [drawing 1864 R1=OPh R2=Ala-iPr], in experiment [3] (Ki (pM), class symbols), the Ki was 10 to 100 pM. The EC50 in experiment [2] (setting [6]) fell in the range of 50 to 500 nM.

As for `COc1cccc(S(=O)(=O)N(CC(C)C)CC(O)C(Cc2ccccc2)NC(=O)OC2COC3OCCC23)c1` (stereo not shown), the I84V/L90M fold change entry in experiment [1] (fold change) was “++ (>10 to ≦30)”. The compound also returned an EC50 in experiment [2] (setting [4]) of under 50 nM. For the compound `COc1ccc(S(=O)(=O)N(CC(C)C)CC(O)C(Cc2ccccc2)NC(=O)OC2COC3OCCC23)cc1OCP(=O)(OCc1ccccc1)OCc1ccccc1` (stereo not shown), in experiment [1] (fold change), the I84V/L90M fold change result was “++ (>10 to ≦30)”. As for `COc1ccc(S(=O)(=O)N(CC(C)C)CC(O)C(Cc2ccc(OCP(=O)(OC(C)C)OC(C)C)cc2)NC(=O)OC2COC3OCCC23)cc1` (stereo not shown) [drawing 1768 R1=OiPr R2=OiPr], the I84V/L90M fold change entry in experiment [1] (setting [5]) is given as “− (≦3)”. Regarding `COc1ccc(S(=O)(=O)N(CC(C)C)CC(O)C(Cc2ccc(OCP(=O)(NC(C)C(=O)OC(C)C)Oc3ccccc3)cc2)NC(=O)OC2COC3OCCC23)cc1` (stereo not shown) [drawing 1774 R1=OPh R2=Ala-iPr], the I84V/L90M fold change result in experiment [1] (setting [5]) is given as “− (≦3)”.

Regarding `CCOC(=O)C(CC)NP(=O)(COc1ccc(CC(NC(=O)OC2COC3OCCC23)C(O)CN(CC(C)C)S(=O)(=O)c2ccc(OC)cc2)cc1)NC(CC)C(=O)OCC` (stereo not shown) [Example 16e], the Ki in experiment [3] (setting [7]) turned out to be 8.8 ± 1.7 pM. In experiment [2] (setting [8]), the EC50 was 12.5 ± 3.5 nM. For `CCOP(=O)(OCC)c1ccc(CC(NC(=O)OC2COC3OCCC23)C(O)CN(CC(C)C)S(=O)(=O)c2ccc(OC)cc2)cc1` (stereo not shown) [drawing 1770 R1=OEt R2=OEt], the I84V/L90M fold change result in experiment [1] (setting [5]) was “− (≦3)”. This compound gave an EC50 in experiment [2] (setting [4]) of under 50 nM.

`CCOP(=O)(OCC)c1ccc(CN(C)CC(NC(=O)OC2COC3OCCC23)C(O)CN(CC(C)C)S(=O)(=O)c2ccc(OC)cc2)cc1` (stereo not shown): the I84V/L90M fold change entry in experiment [1] (setting [5]) is “− (≦3)”. In experiment [2] (setting [4]), this compound yielded an EC50 of under 50 nM. For `CCOP(=O)(COc1ccc(S(=O)(=O)N(CC(C)C)CC(O)C(Cc2ccccc2)NC(=O)OC2COC3OCCC23)cc1)OCC` (stereo not shown), the I84V/L90M fold change entry in experiment [1] (fold change) is recorded as “++ (>10 to ≦30)”. Moreover, the EC50 in experiment [2] (setting [4]) is under 50 nM.

As for `COc1ccc(S(=O)(=O)N(CCN(C)C)CC(O)C(Cc2ccc(O)cc2)NC(=O)OC2COC3OCCC23)cc1` (stereo not shown), the I84V/L90M fold change result in experiment [1] (fold change) was “− (≦3)”. In experiment [2] (setting [4]), this compound came in with a concentration for a half-maximal effect (EC50) of 50 to 500 nM. Take `CCOC(=O)C(CC)OP(=O)(COc1ccc(CC(NC(=O)OC2COC3OCCC23)C(O)CN(CC(C)C)S(=O)(=O)c2ccc(OC)cc2)cc1)Oc1ccccc1` (stereo not shown) [Compound 5b]: in experiment [3] (Ki (pM), class symbols), the Ki was 100 to 1000 pM. For the compound `CC(C)CN(CC(O)C(Cc1ccccc1)NC(=O)OC1COC2OCCC12)S(=O)(=O)c1ccc(OCP(=O)(OCc2ccccc2)OCc2ccccc2)cc1` (stereo not shown), the I84V/L90M fold change entry in experiment [1] (fold change) was “+++ (>30)”. In experiment [2] (setting [4]), this compound returned an EC50 of 50 to 500 nM.

In the case of `COc1ccc(S(=O)(=O)N(CC(C)C)C[C@@H](O)[C@H](Cc2ccc(OCP(=O)(O)O)cc2)NC(=O)OC2CCOC2)cc1` (stereo partly shown) [OMe, OH], the I84V/L90M fold change entry in experiment [1] (fold change) is given as “+++ (>30)”. Take `CC(C)CN(CC(O)C(Cc1ccc(OCP(=O)(OCc2ccccc2)OCc2ccccc2)cc1)NC(=O)OC1COC2OCCC12)S(=O)(=O)c1ccccc1` (stereo not shown): the EC50 in experiment [2] (setting [4]) was under 50 nM.

In the case of `COc1ccc(S(=O)(=O)N(CC(C)C)C[C@@H](O)[C@H](Cc2ccc(OCP(=O)(Oc3ccccc3)Oc3ccccc3)cc2)NC(=O)OC2CCOC2)cc1` (stereo partly shown) [OMe, phenol], the I84V/L90M fold change entry in experiment [1] (fold change) was “+ (>3 to ≦10)”. Besides, the Ki in experiment [3] (read-out: Ki) is under 10 pM. In addition, the EC50 in experiment [2] (read-out: EC50) was under 50 nM. Take `COc1ccc(S(=O)(=O)N(CC(C)C)C[C@@H](OP(=O)(O)O)[C@H](Cc2ccccc2)NC(=O)O[C@H]2CO[C@H]3OCC[C@H]32)cc1` [Phosphate Prodrug of 94-003]: the EC50 in experiment [2] (setting [4]) is under 50 nM. Compound `CCOP(=O)(Cc1ccc(N(C)CC(NC(=O)OC2COC3OCCC23)C(O)CN(CC(C)C)S(=O)(=O)c2ccc(OC)cc2)cc1)OCC` (stereo not shown) had an EC50 in experiment [2] (setting [4]) of under 50 nM.

Consider `CCOP(=O)(COC1CCN(CC(NC(=O)OC2COC3OCCC23)C(O)CN(CC(C)C)S(=O)(=O)c2ccc(OC)cc2)CC1)OCC` (stereo not shown), for which the EC50 in experiment [2] (setting [4]) was in the range of 50 to 500 nM. In experiment [2] (setting [4]), `COc1ccc(S(=O)(=O)N(CC(C)C)CC(O)C(Cc2ccc(OCc3ccccc3)cc2)NC(=O)OC2COC3OCCC23)cc1` (stereo not shown) yielded a concentration giving a half-maximal response (EC50) of under 50 nM. In experiment [2] (setting [4]), `COc1ccc(S(=O)(=O)N(CC(C)C)CC(O)C(Cc2ccccc2)NC(=O)OC2COC3OCCC23)cc1OCP(=O)(O)O` (stereo not shown) came in with an EC50 of 50 to 500 nM.

The EC50 is the concentration that produces a half-maximal response. In general, Ki refers to the dissociation constant of the complex between target and ligand, obtained from inhibition or displacement.

These data come from US20070010489A1 (priority 2002, published 2007).
